Results: patent publication US20100203634A1, “Inhibition of stem cell differentiation, enhancement of proliferation and selective induction of apoptosis by Wnt factors” (DeltaCell B.V., priority 2003, published 2010)
Entries after “also recorded” stand apart in the source; their conditions may differ.

System: fetal lung explants (E12.5)
Assay: Eight-day fetal lung explant culture, histology and tubulin-IV immunostaining (final lung differentiation)
Assay type: cell-based, mouse
Procedure: FIG. 7: The effect of Wnt3A on the final lung differentiation. The lung explants were cultured for eight days in the presence of 0 ng/ml (Panels A and B), 10 ng/ml (Panel C), 50 ng/ml (Panel D), 250 ng/ml (Panel E) and 500 ng/ml Wnt3A (Panel F). After embedding, histological sections were stained with a tubulin-IV antibody to mark ciliated bronchial epithelium. In addition, the sections were counterstained with Haematoxylin and Alcian Blue, which stained the mucus secreted from the bronchial epithelium and the cartilage associated with the tracheal epithelium.
The primary antibodies used for the immunohistochemical detection was for beta-catenin; anti beta-catenin IgG, mAb, clone 14 from BD-Transduction Laboratories, for tubulin-beta mAb clone TBN05 (Tub2.1) from Neomarkers, for BrdU; anti-Bromodeoxyuridine (BrdU), mAb clone ZBU30 from Zymed Laboratories Inc.
To further determine the effect of Wnt3A upon the development and differentiation of the lung over time, fetal lung explants of isolated E12.5 were cultured with 0, 10, 50, 250, and 500 ng/ml Wnt3A for eight days. Two hours before the fixation of the lung explants, BrdU was added to the culture medium, which is incorporated in newly synthesized DNA of active proliferating cells. After the different time points, the lung explants were processed for histological analysis and immuno staining of marker genes.

Wnt3a
effect on lung development (morphology) (10 ng/ml, up to eight days): profound effects on lung development
flattening of the primordial epithelium to the type-I cell (250 ng/ml, eight days): almost completely suppressed
branching (500 ng/ml, after one day): inhibitory effect upon branching
branching (500 ng/ml, eight days): still severely suppressed
differentiation of distal epithelium (alveolar and bronchiolar compartments) (500 ng/ml, eight days): completely inhibited
proximal structures (tubulin-IV, Haematoxylin and Alcian Blue) (500 ng/ml, eight days): consist completely of proximal structures; also recorded: abundance of bronchial epithelium, mucus and cartilage
alveolarization of the distal epithelium / flattened epithelium (alveolar-type-I cells) (10 to 250 ng/ml (to 500 ng/ml in FIG. 7), eight days): decreasing alveolarization of the distal epithelium; also recorded: loss of flattened epithelium (alveolar-type-I cells) with increasing dosage
